Reference: patent US20130157954A1, “METHODS FOR TREATMENT OR PROPHYLAXIS OF KIDNEY OR LIVER DYSFUNCTION” (NPS PHARMACEUTICALS, INC., priority 2010, published 2013)

Test: Example 1: liver biomarkers (total bilirubin, ALT, AST, ALP) in short bowel syndrome patients, every four weeks for 24 weeks; also sorted by >5% change from baseline
Type: in vivo, Human
Parameters: AST (SGOT) Change from Baseline Median / ALT (SGPT) Median / TOTAL BILIRUBIN Median / TOTAL BILIRUBIN Change from Baseline Median / ALT (SGPT) Change from Baseline Median / AST (SGOT) Median: unit not given here
Conditions: for AST (SGOT) Change from Baseline Median / AST (SGOT) Median / TOTAL BILIRUBIN Change from Baseline Median / TOTAL BILIRUBIN Median / ALKALINE PHOSPHATASE Change from Baseline Median / ALT (SGPT) Change from Baseline Median / ALT (SGPT) Median: 0.10 mg/kg/day; for ALKALINE PHOSPHATASE change from baseline <−5%, number of patients / ALKALINE PHOSPHATASE change from baseline <−5%, percent of patients / ALKALINE PHOSPHATASE change from baseline >5%, number of patients / ALKALINE PHOSPHATASE change from baseline >5%, percent of patients / ALKALINE PHOSPHATASE change from baseline −5% <= and <=5%, number of patients / ALKALINE PHOSPHATASE change from baseline −5% <= and <=5%, percent of patients / ALT (SGPT) change from baseline <−5%, number of patients / ALT (SGPT) change from baseline <−5%, percent of patients / ALT (SGPT) change from baseline >5%, number of patients / ALT (SGPT) change from baseline >5%, percent of patients / ALT (SGPT) change from baseline −5% <= and <=5%, number of patients / ALT (SGPT) change from baseline −5% <= and <=5%, percent of patients / AST (SGOT) change from baseline <−5%, number of patients / AST (SGOT) change from baseline <−5%, percent of patients / AST (SGOT) change from baseline >5%, number of patients / AST (SGOT) change from baseline >5%, percent of patients / AST (SGOT) change from baseline −5% <= and <=5%, number of patients / AST (SGOT) change from baseline −5% <= and <=5%, percent of patients / TOTAL BILIRUBIN change from baseline <−5%, number of patients / TOTAL BILIRUBIN change from baseline <−5%, percent of patients / TOTAL BILIRUBIN change from baseline >5%, number of patients / TOTAL BILIRUBIN change from baseline >5%, percent of patients / TOTAL BILIRUBIN change from baseline −5% <= and <=5%, number of patients / TOTAL BILIRUBIN change from baseline −5% <= and <=5%, percent of patients: 0.1 mg/kg/day
Procedure: Human patients with short bowel syndrome were divided into three groups: a control group (16 total individuals) to receive placebo, an experimental group (35 total individuals) to receive teduglutide at 0.05 mg/kg/day throughout the study, and an experimental group (32 total individuals) to receive teduglutide at 0.1 mg/kg/day throughout the study. Patients were treated by subcutaneous injection of placebo or the appropriate dose of teduglutide. As individuals with short bowel syndrome are likely to experience associated liver and kidney disease, known biomarkers of liver and kidney function were monitored every four weeks, for 24 weeks. The liver biomarkers tested included total bilirubin, ALT and AST and ALP. The kidney biomarkers tested included urea nitrogen, creatinine and GFR. Before administration of placebo or teduglutide, diagnostic biomarker levels were tested to establish a baseline for each individual.
To visualize the effect of GLP-2 on the levels of the diagnostic biomarkers, the average change from baseline was calculated for the placebo and teduglutide treated groups for each visit after a baseline was established. The average change from baseline of each group is depicted in FIGS. 1-7. The numerical figures for each diagnostic biomarker at each time point are depicted in Table 1.
The efficacy of teduglutide in treating liver dysfunction was further tested by sorting the data into two groups: individuals with abnormal baseline values of liver diagnostic biomarkers; and individuals with normal baseline values of liver diagnostic biomarkers. The mean diagnostic biomarker change from baseline for these two groups is shown for ALT (FIGS. 5 and 6) and AST (FIGS. 7 and 8). […] These changes were significant when compared to baseline levels for the group, and when compared to placebo (see FIGS. 5 and 7).
The raw data for this sorting is reproduced in Table 2 below.

CC[C@H](C)[C@H](NC(=O)[C@H](Cc1ccccc1)NC(=O)[C@H](CC(=O)O)NC(=O)[C@H](CCCNC(=N)N)NC(=O)[C@H](C)NC(=O)[C@H](C)NC(=O)[C@H](CC(C)C)NC(=O)[C@H](CC(N)=O)NC(=O)[C@H](CC(=O)O)NC(=O)[C@H](CC(C)C)NC(=O)[C@@H](NC(=O)[C@@H](NC(=O)[C@H](CC(N)=O)NC(=O)[C@H](CCSC)NC(=O)[C@H](CCC(=O)O)NC(=O)[C@H](CC(=O)O)NC(=O)[C@H](CO)NC(=O)[C@H](Cc1ccccc1)NC(=O)[C@H](CO)NC(=O)CNC(=O)[C@H](CC(=O)O)NC(=O)CNC(=O)[C@@H](N)Cc1c[nH]cn1)[C@@H](C)O)[C@@H](C)CC)C(=O)N[C@@H](CC(N)=O)C(=O)N[C@@H](Cc1c[nH]c2ccccc12)C(=O)N[C@@H](CC(C)C)C(=O)N[C@H](C(=O)N[C@@H](CCC(N)=O)C(=O)N[C@H](C(=O)N[C@@H](CCCCN)C(=O)N[C@H](C(=O)N[C@H](C(=O)N[C@@H](CC(=O)O)C(=O)O)[C@@H](C)O)[C@@H](C)CC)[C@@H](C)O)[C@@H](C)CC [teduglutide]
AST (SGOT) Change from Baseline Median (DW4): −5.0 | AST (SGOT) Median (DW4): 28.0 | TOTAL BILIRUBIN Change from Baseline Median (DW4): −1.0 | TOTAL BILIRUBIN Median (DW4): 7.0 | ALKALINE PHOSPHATASE Change from Baseline Median (DW8): −20.0 | ALT (SGPT) Change from Baseline Median (DW8): −8.0 | AST (SGOT) Change from Baseline Median (DW8): −5.0 | AST (SGOT) Median (DW8): 28.0 | TOTAL BILIRUBIN Change from Baseline Median (DW8): −1.0 | TOTAL BILIRUBIN Median (DW8): 7.0 | ALT (SGPT) Change from Baseline Median (DW12): −11.0 | ALT (SGPT) Median (DW12): 35.0 | AST (SGOT) Change from Baseline Median (DW12): −3.5 | TOTAL BILIRUBIN Change from Baseline Median (DW12): 0.0 | TOTAL BILIRUBIN Median (DW12): 7.0 | ALT (SGPT) Change from Baseline Median (DW16): −10.0 | ALT (SGPT) Median (DW16): 30.0 | AST (SGOT) Change from Baseline Median (DW16): −4.0 | AST (SGOT) Median (DW16): 30.0 | TOTAL BILIRUBIN Change from Baseline Median (DW16): −0.5 | TOTAL BILIRUBIN Median (DW16): 7.5 | ALKALINE PHOSPHATASE Change from Baseline Median (DW20): −23.0 | ALT (SGPT) Change from Baseline Median (DW20): −9.0 | ALT (SGPT) Median (DW20): 29.0 | AST (SGOT) Change from Baseline Median (DW20): −2.5 | AST (SGOT) Median (DW20): 30.0 | TOTAL BILIRUBIN Change from Baseline Median (DW20): 0.0 | TOTAL BILIRUBIN Median (DW20): 7.0 | ALKALINE PHOSPHATASE Change from Baseline Median (DW 24): −21.0 | ALT (SGPT) Change from Baseline Median (DW 24): −4.0 | ALT (SGPT) Median (DW 24): 37.0 | AST (SGOT) Change from Baseline Median (DW 24): −3.0 | AST (SGOT) Median (DW 24): 32.0 | TOTAL BILIRUBIN Change from Baseline Median (DW 24): 0.0 | TOTAL BILIRUBIN Median (DW 24): 9.0 | ALKALINE PHOSPHATASE change from baseline <−5%, number of patients (week 4): 17 | ALKALINE PHOSPHATASE change from baseline <−5%, percent of patients (week 4): (53.1%) | ALKALINE PHOSPHATASE change from baseline >5%, number of patients (week 4): 11 | ALKALINE PHOSPHATASE change from baseline >5%, percent of patients (week 4): (34.4%) | ALKALINE PHOSPHATASE change from baseline −5% <= and <=5%, number of patients (week 4): 4 | ALKALINE PHOSPHATASE change from baseline −5% <= and <=5%, percent of patients (week 4): (12.5%) | ALT (SGPT) change from baseline <−5%, number of patients (week 4): 20 | ALT (SGPT) change from baseline <−5%, percent of patients (week 4): (62.5%) | ALT (SGPT) change from baseline >5%, number of patients (week 4): 10 | ALT (SGPT) change from baseline >5%, percent of patients (week 4): (31.3%) | ALT (SGPT) change from baseline −5% <= and <=5%, number of patients (week 4): 2 | ALT (SGPT) change from baseline −5% <= and <=5%, percent of patients (week 4): (6.3%) | AST (SGOT) change from baseline <−5%, number of patients (week 4): 17 | AST (SGOT) change from baseline <−5%, percent of patients (week 4): (53.1%) | AST (SGOT) change from baseline >5%, number of patients (week 4): 10 | AST (SGOT) change from baseline >5%, percent of patients (week 4): (31.3%) | AST (SGOT) change from baseline −5% <= and <=5%, number of patients (week 4): 4 | AST (SGOT) change from baseline −5% <= and <=5%, percent of patients (week 4): (12.5%) | TOTAL BILIRUBIN change from baseline <−5%, number of patients (week 4): 16 | TOTAL BILIRUBIN change from baseline <−5%, percent of patients (week 4): (50.0%) | TOTAL BILIRUBIN change from baseline >5%, number of patients (week 4): 12 | TOTAL BILIRUBIN change from baseline >5%, percent of patients (week 4): (37.5%) | TOTAL BILIRUBIN change from baseline −5% <= and <=5%, number of patients (week 4): 3 | TOTAL BILIRUBIN change from baseline −5% <= and <=5%, percent of patients (week 4): (9.4%) | ALKALINE PHOSPHATASE change from baseline <−5%, number of patients (week 8): 24 | ALKALINE PHOSPHATASE change from baseline <−5%, percent of patients (week 8): (75.0%) | ALKALINE PHOSPHATASE change from baseline >5%, number of patients (week 8): 5 | ALKALINE PHOSPHATASE change from baseline >5%, percent of patients (week 8): (15.6%) | ALKALINE PHOSPHATASE change from baseline −5% <= and <=5%, number of patients (week 8): 2 | ALKALINE PHOSPHATASE change from baseline −5% <= and <=5%, percent of patients (week 8): (6.3%) | ALT (SGPT) change from baseline <−5%, number of patients (week 8): 20 | ALT (SGPT) change from baseline <−5%, percent of patients (week 8): (62.5%) | ALT (SGPT) change from baseline >5%, number of patients (week 8): 8 | ALT (SGPT) change from baseline >5%, percent of patients (week 8): (25.0%) | ALT (SGPT) change from baseline −5% <= and <=5%, number of patients (week 8): 2 | ALT (SGPT) change from baseline −5% <= and <=5%, percent of patients (week 8): (6.3%) | AST (SGOT) change from baseline <−5%, number of patients (week 8): 21 | AST (SGOT) change from baseline <−5%, percent of patients (week 8): (65.6%) | AST (SGOT) change from baseline >5%, number of patients (week 8): 5 | AST (SGOT) change from baseline >5%, percent of patients (week 8): (15.6%) | AST (SGOT) change from baseline −5% <= and <=5%, number of patients (week 8): 4 | AST (SGOT) change from baseline −5% <= and <=5%, percent of patients (week 8): (12.5%) | TOTAL BILIRUBIN change from baseline <−5%, number of patients (week 8): 16 | TOTAL BILIRUBIN change from baseline <−5%, percent of patients (week 8): (50.0%) | TOTAL BILIRUBIN change from baseline >5%, number of patients (week 8): 7 | TOTAL BILIRUBIN change from baseline >5%, percent of patients (week 8): (21.9%) | TOTAL BILIRUBIN change from baseline −5% <= and <=5%, number of patients (week 8): 6 | TOTAL BILIRUBIN change from baseline −5% <= and <=5%, percent of patients (week 8): (18.8%) | ALKALINE PHOSPHATASE change from baseline <−5%, number of patients (week 12): 19 | ALKALINE PHOSPHATASE change from baseline <−5%, percent of patients (week 12): (59.4%) | ALKALINE PHOSPHATASE change from baseline >5%, number of patients (week 12): 10 | ALKALINE PHOSPHATASE change from baseline >5%, percent of patients (week 12): (31.3%) | ALKALINE PHOSPHATASE change from baseline −5% <= and <=5%, number of patients (week 12): 1 | ALKALINE PHOSPHATASE change from baseline −5% <= and <=5%, percent of patients (week 12): (3.1%) | ALT (SGPT) change from baseline <−5%, number of patients (week 12): 20 | ALT (SGPT) change from baseline <−5%, percent of patients (week 12): (62.5%) | ALT (SGPT) change from baseline >5%, number of patients (week 12): 7
